Consider four molecules from publication PMC8330100, “Similarities and differences in the localization, trafficking, and function of P-glycoprotein in MDR1-EGFP-transduced rat versus human brain capillary endothelial cell lines” (Fluids and Barriers of the CNS, 2021).

Data set [1] is described as follows: Mannitol permeability assay (basolateral to apical) across RBE4 monolayers. Type of data set: in vitro ADME, rat. The settings on record: rat. As to the method: (§1) Incubation was performed under cell culture conditions (37 °C, 5% CO2, humidified atmosphere) on a horizontal shaker (55 rpm). […] Basolateral volume was adjusted after each sampling to compensate for changes in the hydrostatic pressure. TEER measurements before and after the assay were carried out to confirm barrier integrity. The apparent permeability coefficients (Papp) in nm per second were calculated according to Artursson. Each experiment was performed in at least three replicates. As was described for the TEER measurements above, mannitol fluxes were compared in the ThinCert®, Transwell®, and Sarstedt-TC-insert systems, using 6-well and 12-well multiwell plates and different membrane materials. Based on this comparison, all subsequent experiments were performed with ThinCert® cell culture inserts [12-well, 0.4 µm pore size, polyethylene terephthalate (PET)] from Greiner Bio-One.

The subject of another data set is RBE4 cell monolayers. Described as above. Type of data set: in vitro ADME, rat. As for the experimental part: as §1
A short description of data set [2]: Mannitol permeability assay (basolateral to apical) across hCMEC/D3 monolayers. Type of data set: in vitro ADME, human. The settings on record: human. As for the experimental part: as §1
Another data set has as its system hCMEC/D3 cell monolayers. The description is as above. The format is in vitro ADME, human. As to the method:
as §1

Data set [3] in a line: Paracellular mannitol flux across LLC-MDR1 monolayers. Type of data set: in vitro ADME, porcine. The note with it: pig, LLC-PK1, corresponding to the flux per hour, read-out: mannitol permeability.
The test system of a further data set is LLC-MDR1 cell monolayers. The description is as above. The format is in vitro ADME, porcine.
For data set [4], the target named is Pgp in RBE4-MDR1-EGFP monolayers (Homo sapiens, UniProt P08183). The settings on record: [3H]dLop 5 nM. As for the experimental part: (§2) For these experiments, a concentration equilibrium transport assay (CETA) was used, which is more sensitive to identify Pgp substrates than conventional bidirectional (concentration gradient) transport assays. In the CETA, the drug is added to both (apical and basolateral) sides of the monolayer, so that the initial drug concentration is the same in both compartments, thereby minimizing the effect of passive diffusion across the cell monolayer.
(§3) In the present study, the CETA assay was used to determine the flux of the radiolabeled Pgp substrate [N-methyl-^3H]N-desmethyl loperamide ([^3H]dLop) across hCMEC/D3-MDR1-EGFP and RBE4-MDR1-EGFP monolayers. […] Cells were grown on permeable ThinCert® filter supports (12-well, 0.4 µm pore size, PET, Greiner Bio-One). […] Transport studies were performed in triplicates seven days after seeding. […] After 30, 60, 120, 180, and 240 min, samples of 50 µL and 70 µL were retrieved from the apical and basolateral chambers, respectively. Quantification of substrate transport was conducted by liquid scintillation counting using a 1450 Microbeta Trilux liquid scintillation counter (Perkin Elmer Wallac). […] Baseline dLop levels were corrected by the amount of dLop absorbed by the filter system as measured in blank inserts without cells. […]

Data set [5] deals with Pgp in hCMEC/D3-MDR1-EGFP monolayers (Homo sapiens, UniProt P08183). The settings on record: [3H]dLop 5 nM. As for the experimental part:
as §2, §3

In data set [6] the target is Pgp in LLC-MDR1 monolayers (Homo sapiens, UniProt P08183). The note with it: [3H]dLop 5 nM.
Data set [7] concerns RBE4-MDR1-EGFP cells. Briefly: Count of Pgp-EGFP-positive intracellular vesicles before and 24 h after doxorubicin, RBE4-MDR1-EGFP. The format is cell-based, rat. The note with it: doxorubicin 10 µM, 30 min, 24 h after treatment. As to the method: (§4) To evaluate the number of green-fluorescent (Pgp-EGFP positive) intracellular vesicles in RBE4- and hCMEC/D3-MDR1-EGFP cells before and 24 h after treatment with doxorubicin (10 µM, 30 min, 37 °C), imaging of the cells was performed using an inverted fluorescence microscope Lumascope 620 (Etaluma Carlsbach, USA) placed in the cell culture incubator. After treatment with doxorubicin, cells were maintained in a doxorubicin-free cell culture medium until imaging. Before imaging, cellular debris was removed by washing the cells twice with sterile PBS followed by the addition of fresh doxorubicin-free culture medium.

Data set [8] has as its system hCMEC/D3-MDR1-EGFP cells. The data set is described as follows: Count of Pgp-EGFP-positive intracellular vesicles before and 24 h after doxorubicin, hCMEC/D3-MDR1-EGFP. The note with it: doxorubicin 10 µM, 30 min, 24 h after treatment. Type of data set: cell-based, human. As to the method: as §4
The subject of data set [9] is RBE4-MDR1-EGFP cells. Briefly: Doxorubicin toxicity with or without Pgp inhibition by tariquidar, RBE4-MDR1-EGFP. The format is cell-based, rat. The note with it: doxorubicin 10 µM, 30 min. As for the experimental part: (§5) For analysis of the effects of doxorubicin on Pgp-inhibited cells, confluent monolayers of RBE4- and hCMEC/D3-MDR1-EGFP cells grown on coverslips were preincubated with or without the Pgp inhibitor tariquidar (0.5 µM, 1 h, 37 °C) in Opti-MEM before the addition of doxorubicin (10 µM, 30 min, 37 °C). After substrate incubation, cells were covered with cell culture medium for 24 h. Cells were then washed once with PBS, fixed with paraformaldehyde (4%, 30 min), and permeabilized with Triton X-100 (1%, 5 min). Finally, cells were washed and coverslips were mounted in Prolong Gold antifade (Carl Roth GmbH, Karlsruhe, Germany) containing 4’,6-diamidino-2-phenylindole (DAPI) to stain nuclei. Analysis was performed with a Zeiss Axio Observer fluorescence microscope including an ApoTome.2 and using a 40× or 63× objective.

In data set [10] the test system is hCMEC/D3-MDR1-EGFP cells. Briefly: Doxorubicin toxicity with or without Pgp inhibition by tariquidar, hCMEC/D3-MDR1-EGFP. Type of data set: cell-based, human. The note with it: doxorubicin 10 µM, 30 min. As to the method:
as §5

In a further data set the test system is Pgp in rBCECs. The note with it: cited from earlier work.
The mark [11] stands for this setting: RBE4-MDR1 + dox, 7 days after seeding, basolateral to apical, ThinCert 12-well, 0.4 µm, PET.
Where [12] appears, read: RBE4-WT, 6-well, Corning #3412, PC, 1·10^8 pores/cm².
[13] abbreviates: RBE4-WT, 12-well, Corning #3460, PET, 4·10^6 pores/cm².
[14] abbreviates: RBE4-WT, 12-well, Sarstedt #83.3931.040, PET, 1·10^8 pores/cm².
Where [15] appears, read: RBE4-WT, 7 days after seeding, basolateral to apical, ThinCert (Greiner #665641) 12-well, 0.4 µm, PET, 2·10^6 pores/cm².
The mark [16] stands for this setting: hCMEC/D3-MDR1 + dox, 7 days after seeding, basolateral to apical, ThinCert 12-well, 0.4 µm, PET.
The mark [17] stands for this setting: hCMEC/D3-WT, 12-well, Corning #3460, PET, 4·10^6 pores/cm².
[18] abbreviates: hCMEC/D3-WT, 7 days after seeding, basolateral to apical, ThinCert (Greiner #665641) 12-well, 0.4 µm, PET, 2·10^6 pores/cm².
Where [19] appears, read: hCMEC/D3-WT, 6-well, Corning #3412, PC, 1·10^8 pores/cm².

As a reminder, the Papp B→A is the apparent permeability from the basolateral to the apical side of a cell layer. As for `OC[C@@H](O)[C@@H](O)[C@H](O)[C@H](O)CO` [Mannitol, D-mannitol], the Papp at 180 min, 1.85 kBq/mL in data set [1] (setting [11]) amounted to 6.07 ± 0.159 ×10⁻⁶ cm/s; in data set [1] (setting [12]), 11.3 ± 1.18 ×10⁻⁶ cm/s; in data set [1] (setting [13]), 15.4 ± 0.215 ×10⁻⁶ cm/s; in data set [1] (setting [14]), 21 ± 0.352 ×10⁻⁶ cm/s; in [1] (setting [15]) it was 5.96 ± 0.407 ×10⁻⁶ cm/s; in data set [2] (setting [16]), 5.67 ± 0.252 ×10⁻⁶ cm/s. Further, the Papp at 180 min, 1.85 kBq/mL in data set [2] (setting [17]) is 13.5 ± 0.372 ×10⁻⁶ cm/s; in [2] (hCMEC/D3-WT, 12-well, Sarstedt #83.3931.040, PET, 1·10^8 pores/cm²), 19.8 ± 0.489 ×10⁻⁶ cm/s; in [2] (setting [18]), 5.38 ± 0.432 ×10⁻⁶ cm/s; in [3] it was below 1.2 ×10⁻⁶ cm/s. Moreover, the Mannitol permeability with RBE4 cell monolayers (setting [11]) is listed as 4.30 ± 0.22 %/h; with RBE4 cell monolayers (setting [12]), 13.62 ± 0.80 %/h; with RBE4 cell monolayers (setting [13]), 11.15 ± 0.24 %/h; with RBE4 cell monolayers (setting [14]), 19.18 ± 0.13 %/h; in the data set on RBE4 cell monolayers (setting [15]) it was 4.20 ± 0.30 %/h; in the data set on hCMEC/D3 cell monolayers (setting [16]) it was 3.81 ± 0.11 %/h. Also, the Mannitol permeability amounted to 14.76 ± 1.01 %/h in the data set with hCMEC/D3 cell monolayers (setting [19]), 11.17 ± 0.36 %/h in the data set on hCMEC/D3 cell monolayers (setting [17]) and 3.71 ± 0.13 %/h in the data set with hCMEC/D3 cell monolayers (setting [18]). Moreover, in [2] (setting [19]), the Papp B→A at 180 min, 1.85 kBq/mL is 10 ×10⁻⁶ cm/s. Further, the paracellular mannitol flux result in the data set with LLC-MDR1 cell monolayers is given as “less than 1 % of mannitol diffusion per hour”.
`[3H]CNC(=O)C(CCN1CCC(O)(c2ccc(Cl)cc2)CC1)(c1ccccc1)c1ccccc1` [dLop, [N-methyl-^3H]N-desmethyl loperamide]: the “asymmetrical (basolateral to apical) transport in CETA” value is on record as “not observed” in data set [4], “not observed” in data set [5] and “such transport was obtained” in data set [6].
Take `COc1cccc2c1C(=O)c1c(O)c3c(c(O)c1C2=O)C[C@@](O)(C(=O)CO)C[C@@H]3O[C@H]1C[C@H](N)[C@H](O)[C@H](C)O1` [doxorubicin]: the “increase of average number of Pgp-EGFP-positive vesicles per cell” value in the data set on RBE4-MDR1-EGFP cells [7] amounted to 220%; in the data set with hCMEC/D3-MDR1-EGFP cells [8] it was 170%. In addition, the “toxicity 24 h after exposure, Pgp inhibited” value in the data set on RBE4-MDR1-EGFP cells [9] (after tariquidar 0.5 µM) and in the data set on hCMEC/D3-MDR1-EGFP cells [10] (after tariquidar 0.5 µM) was “cell death” throughout. The “toxicity 24 h after exposure, absence of Pgp inhibition” value in the data set on RBE4-MDR1-EGFP cells [9] (no tariquidar) and in the data set on hCMEC/D3-MDR1-EGFP cells [10] (no tariquidar) was “without any signs of toxicity” in each case.
With `COc1ccc(C[C@H](N)C(=O)N[C@H]2[C@@H](O)[C@H](n3cnc4c(N(C)C)ncnc43)O[C@@H]2CO)cc1` [puromycin], the “effect of drug exposure on Rho123 accumulation” value in the data set on Pgp in rBCECs is listed as “significantly reduced”.
